The values below come from publication PMC6010140, “Design, synthesis and docking study of novel coumarin ligands as potential selective acetylcholinesterase inhibitors” (Journal of Enzyme Inhibition and Medicinal Chemistry, 2017).

Structures are written as SMILES. Entries after “also recorded” stand apart in the source; their conditions may differ. Like-named read-outs stand apart in the source and are kept apart here.

For orientation: IC50 means the midpoint of a concentration-inhibition curve.

One assay deals with BuChE. Particulars: cited from earlier work.
Assay [1] deals with AChE. Particulars: cited from earlier work.
Assay [2] concerns the target AChE (Electrophorus electricus, UniProt O42275). Particulars: Lineweaver-Burk plot. Here is the method:
The plots were assessed by a weighted least-squares analysis that assumed the variance of velocity (v) to be a constant percentage of v for the entire data set.

Sequence of AChE (Electrophorus electricus, UniProt O42275) (O42275 24-633): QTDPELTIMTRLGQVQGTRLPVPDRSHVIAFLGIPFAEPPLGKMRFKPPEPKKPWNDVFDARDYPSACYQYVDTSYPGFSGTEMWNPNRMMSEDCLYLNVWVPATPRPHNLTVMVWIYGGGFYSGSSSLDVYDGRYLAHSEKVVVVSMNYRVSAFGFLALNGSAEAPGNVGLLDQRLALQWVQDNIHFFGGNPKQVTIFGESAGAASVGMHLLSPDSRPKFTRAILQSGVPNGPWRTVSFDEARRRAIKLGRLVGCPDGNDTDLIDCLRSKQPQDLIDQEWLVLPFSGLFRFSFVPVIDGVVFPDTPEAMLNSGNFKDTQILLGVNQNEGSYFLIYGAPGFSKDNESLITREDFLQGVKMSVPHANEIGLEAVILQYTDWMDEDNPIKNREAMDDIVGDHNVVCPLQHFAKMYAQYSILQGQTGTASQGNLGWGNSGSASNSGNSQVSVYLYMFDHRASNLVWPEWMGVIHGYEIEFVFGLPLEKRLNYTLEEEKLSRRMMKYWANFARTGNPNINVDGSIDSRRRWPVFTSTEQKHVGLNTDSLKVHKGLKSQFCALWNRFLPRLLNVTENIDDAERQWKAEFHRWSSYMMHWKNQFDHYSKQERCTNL

On to `Nc1c2c(nc3ccccc13)CCCC2` [Tacrine], for which, in the assay with BuChE, the IC50 is […]. In the case of `CCN(C)C(=O)Oc1cccc([C@H](C)N(C)C)c1` [Rivastigmine], the values for the IC50 with BuChE and in the assay on AChE [1] were […] and […], respectively. For the same molecule, the Selectivity index with AChE [1] (IC50 (BuChE)/IC50 (AChE)) is […]. Consider `CCN(CC)CC(=O)Nc1nc(-c2cc3ccccc3oc2=O)cs1` [Compound 6c, 2-(Diethylamino)-N-(4-(2-oxo-2H-chromen-3-yl)thiazol-2-yl)acetamide], for which the “type of AChE inhibition” value at AChE [2] is “mixed-type inhibitor; also recorded: mixed-type inhibition”. With `COc1cccc2cc(-c3csc(NC(=S)Nc4ccc(Cl)cc4)n3)c(=O)oc12` [PBI-2], the IC50 in the assay with AChE [1] (authors' previous work) is 4.58 µM.

In the case of `COc1cc2c(cc1OC)C(=O)C(CC1CCN(Cc3ccccc3)CC1)C2` (centres unmarked) [Donepezil], in the assay on BuChE, the IC50 was […].

For `O=C(Nc1nc(-c2cc3cc(Br)ccc3o2)cs1)Nc1ccccc1F` [PBI-1], the IC50 in the assay on AChE [1] (authors' previous work) was 3.85 µM.
